Experiments:
[1] = molecular target: HIV-1 reverse transcriptase (Human immunodeficiency virus type 1 group M subtype B, UniProt P04585); test: Inhibition of HIV reverse transcriptase (statement in background); type: biochemical; conditions: metabolite of NNRTI from rat, monkey and human microsomes

Which “inhibitor of HIV reverse transcriptase” value [1] does the source give for `O=C1Nc2c(O)cc(Cl)cc2[C@@](C#CC2CC2)(C(F)(F)F)O1` [Example 2, (−)-6-Chloro-4-(cyclopropylethynyl)-8-hydroxy-4-(trifluoromethyl)-1,4-dihydro-2H-3,1-benzoxazin-2-one] here?
The value was “potent inhibitor”.

With `CC(=O)c1ccc2c(c1)C(C#CC1CC1)(C(F)(F)F)OC(=O)N2` (racemic) [Example 7, (+/−)-6-Acetyl-4-cyclopropylethynyl-4-trifluoromethyl-1,4-dihydro-2H-3,1-benzoxazin-2-one] as the molecule, how does the melting point read?
Its melting point is 197 to 200 °C.

Which melting point does the source give for `Cc1ccc2c(c1)C(C#CC1CC1)(C(C)C)OC(=O)N2` (racemic) [Example 5, (+/−)-4-Cyclopropylethynyl-4-isopropyl-6-methyl-1,4-dihydro-2H-3,1-benzoxazin-2-one] here?
The melting point was 138 to 138.5 °C.

Which melting point does the source give for `O=C1Nc2ccc(Cl)cc2[C@@](C#Cc2ccccn2)(C(F)(F)F)O1` [Example 23] here?
The melting point was 185.8 °C.

Which melting point does the source give for `O=C1Nc2c(F)cc(Cl)cc2C(C#CC2CC2)(C(F)(F)F)O1` (racemic) [Example 4, (+/−)-6-Chloro-4-(cyclopropylethynyl)-8-fluoro-4-(trifluoromethyl)-1,4-dihydro-2H-3,1-benzoxazin-2-one] here?
Its melting point is 169 to 171 °C.

— US6492515B2, “4,4-disubstituted-1, 4-dihydro-2H-3, 1-benzoxazin-2-ones useful as HIV reverse transcriptase inhibitors and intermediates and processes for making the same” (Bristol-Myers Squibb Pharma Company, priority 1996, dated 2002)
